Data from US20230040386A1, “URSODEOXYCHOLIC ACID-CONTAINING AGENT FOR TREATING OR PREVENTING PRESBYOPIA” (priority 2018, published 2023).

Columns and labels:
lens [1] = assay: Pharmacological Test 4: lens elasticity, once-daily instillation of ursodeoxycholic acid for 2 weeks; assay type: in vivo, C57BL/6J mice; conditions: 14 days; for Lens elasticity improvement: vs vehicle control; for Lens elasticity improvement, in words: instilled once-daily, 1% and 3% ursodeoxycholic acid samples, 1.5% EV06 sample
Description: A vehicle comprising 0.1% (w/v) of ethyl pyruvate, 0.269% (w/v) of sodium dihydrogenphosphate monohydrate (NaH2PO4H2O), 0.433% (w/v) of disodium hydrogenphosphate (Na2HPO4), 0.2% (w/v) of hydroxypropyl methylcellulose, 0.5% (w/v) of NaCl was prepared. Ursodeoxycholic acid was sonicated with the addition of the vehicle to prepare a 3.0% (w/v) suspension. The resulting 3.0% (w/v) suspension was diluted with the vehicle to prepare a 1.0% (w/v) suspension. Further, the resulting 1.0% (w/v) suspension was diluted with the vehicle to prepare a 0.3% (w/v) suspension. The total amount of each sample to be used in one day was prepared before use. EV06 was sonicated with the addition of the vehicle to prepare a 1.5% (w/v) solution. The total amount of the sample to be used in one day was prepared before use. 1) Each test sample (2.5 μL/eye) was instilled into the right eye of 8-month-old C57BL/6J mice with a Pipetman once per day (QD; around 9:00), twice per day (BID; around 9:00 and 17:00), or 3 times per day (TID; around 9:00, 13:00 and 17:00) for 14 days. 2) After the final instillation, the mice were euthanized by carbon dioxide inhalation, and then the eyeballs were extracted and rinsed with Hank's balanced salt solution (HBSS). 3) The sclera near the optic nerve was cut with a razor, the lens was removed through the incision, and the removed lens was immersed in HBSS. 4) The lens was placed on a glass slide, and an all-in-one fluorescence microscope BZ-9000 ([…]) was used to capture an image of the lens (image a). 5) Next, one cover glass (Corning^(registered trade mark) 22×22 mm Square) was placed on the lens, and an image in which the thickness of the lens changed due to the weight was similarly captured (Image b). 6) A change in the lens diameter was calculated from Equation 1 wherein the lens diameter of Image a is subtracted from the lens diameter of Image b, as described below. Then, the lens elasticity improvement of each sample group compared with the vehicle control group was calculated from Equation 2 described below. The mean of the vehicle control group was based on 5 eyes, the mean of each ursodeoxycholic acid sample group was based on 10 eyes, and the mean of each EV06 sample group was based on 10 eyes. Change in lens diameter=Lens diameter in Image b of each test sample-Lens diameter in Image a of each test sample (Equation 1) Lens elasticity improvement of each sample group=Mean change in lens diameter of each Test sample group-Mean change in lens diameter of Vehicle control group (Equation 2)

lens [2] = assay: Pharmacological Test 3: lens elasticity after instillation of ursodeoxycholic acid (free form); assay type: in vivo, C57BL/6J mice; conditions: 2.5 μL/eye, 3 times per day, 12 to 15 days, vs vehicle control
Description: A vehicle comprising 0.1% (w/v) of ethyl pyruvate, 0.269% (w/v) of sodium dihydrogenphosphate monohydrate (NaH2PO4H2O), 0.433% (w/v) of disodium hydrogenphosphate (Na2HPO4), 0.2% (w/v) of hydroxypropyl methylcellulose, and 0.5% (w/v) of NaCl was prepared. Ursodeoxycholic acid was sonicated with the addition of the vehicle to prepare a 1.5% (w/v) suspension. The resulting 1.5% (w/v) suspension was diluted with the vehicle to prepare a 0.5% (w/v) suspension. Further, the resulting 0.5% (w/v) suspension was diluted with the vehicle to prepare a 0.15% (w/v) suspension. The total amount of each sample to be used in one day was prepared before use. EV06 was sonicated with the addition of the vehicle to prepare a 1.5% (w/v) solution. The total amount of the sample to be used in one day was prepared before use. 1) Each test sample (2.5 μL/eye) was instilled into the right eye of 8-month-old C57BL/6J mice with a Pipetman 3 times per day (around 9:00, 13:00 and 17:00) for 12 to 15 days. 2) After the final instillation, the mice were euthanized by carbon dioxide inhalation, and then the eyeballs were extracted and rinsed with Hank's balanced salt solution (HBSS). 3) The sclera near the optic nerve was cut with a razor, the lens was removed through the incision, and the removed lens was immersed in HBSS. 4) The lens was placed on a glass slide, and an all-in-one fluorescence microscope BZ-9000 (Keyence) was used to capture an image of the lens (Image a). 5) Next, one cover glass (Corning^(registered trade mark) 22×22 mm Square) was placed on the lens, and an image in which the thickness of the lens changed due to the weight was similarly captured (image b). 6) A change in the lens diameter was calculated from Equation 1 wherein the lens diameter of Image a is subtracted from the lens diameter of Image b, as described below. Then, the lens elasticity improvement of each sample group compared with the vehicle control group was calculated from Equation 2 described below. The mean of the vehicle control group was based on 5 eyes, the mean of each ursodeoxycholic acid sample group was based on 10 eyes, and the mean of the EV06 sample group was based on 10 eyes. Change in lens diameter=Lens diameter in Image b of each test sample−Lens diameter in Image a of each test sample (Equation 1) Lens elasticity improvement of each sample group=Mean change in lens diameter of each Test sample group−Mean change in lens diameter of Vehicle control group (Equation 2)

Structure (SMILES)	Lens elasticity improvement (lens [1]; 0.3% (w/v) sample, QD)	Lens elasticity improvement (lens [1]; 1% (w/v) sample, QD)	Lens elasticity improvement (lens [1]; 3% (w/v) sample, QD)	Lens elasticity improvement, in words (lens [1])	Lens elasticity improvement (lens [2]; 0.15% (w/v) sample)	Lens elasticity improvement (lens [2]; 0.5% (w/v) sample)	Lens elasticity improvement (lens [2]; 1.5% (w/v) sample)	Lens elasticity improvement (lens [1]; 1.5% (w/v) sample, BID)	Lens elasticity improvement (lens [1]; 1.5% (w/v) sample, QD)	Lens elasticity improvement (lens [1]; 1.5% (w/v) sample, TID)
C[C@H](CCC(=O)O)[C@H]1CC[C@H]2[C@@H]3[C@@H](O)C[C@@H]4C[C@H](O)CC[C@]4(C)[C@H]3CC[C@]12C [ursodeoxycholic acid, 3α,7β-Dihydroxy-5β-cholan-24-oic acid]	2.8 μm	28.1 μm	30.4 μm	potent lens elasticity improvement	31.8 μm	39.4 μm	59.9 μm			
C[N+](C)(C)CCOC(=O)CCCC[C@@H]1CCSS1 [EV06, lipoic acid choline ester]				no effect			42.5 μm	15.7 μm	−3.6 μm	29.5 μm
